# Data published in patent US5356926A, “3-alkyloxy-, aryloxy-, or arylalkyloxy-benzo [β]thiophene-2-carboxamides as inhibitors of cell adhesion” (Warner-Lambert Company, priority 1993, dated 1994).
# Tested on: human neutrophil adhesion to TNFα, IL-1α, and LPS-stimulated human umbilical vein endothelial cells
# Assay: Inhibition of human neutrophil adhesion to stimulated HUVEC (51Cr-labeled neutrophils)
# Format: cell-based
# Details: Table 1, at 100 μM
# From the text: METHOD FOR DETERMINING THE INHIBITION OF HUMAN NEUTROPHIL ADHESION TO TNFα, IL-1α, AND LPS-STIMULATED HUMAN UMBILICAL VEIN ENDOTHELIAL CELLS BY 3-ALKYLOXY-, ARYLOXY-, OR ARYLALKYLOXY BENZO[b]THIOPHENE-2-CARBOXAMIDES
# Neutrophils were isolated from anticoagulant-treated venous blood obtained from healthy human volunteers according to the method of Ferrante and Thong (J. Immunol. Methods 1978;24:389-93).
# Second passage human umbilical vein endothelial cells (HUVEC) (Clonetics, San Diego, Calif.) were seeded into Falcon 24-well cell culture plates (Becton Dickinson, Lincoln Park, N.J.) at approximately 2×10^4 cells per well. The cells were grown to confluent monolayers in endothelial basal medium (EBM, Clonetics) supplemented with 5% fetal calf serum (Hyclone Laboratories, Logan, Utah), 10 ng/mL EGF, 1 μg/mL hydrocortisone, 0.4% bovine brain extract (Clonetics) in 5% CO2 at 37° C.
# Neutrophils (30×10^6) were labeled for 60 minutes at 37° C. with 100 μCi Na^51 CrO4 (ICN Biomedicals, Costa Mesa, Calif.) in 2.0 mL Ca^2+ - and Mg^2+ -free Hanks' balanced salt solution (HBSS, GIBCO Laboratories, Grand Island, N.Y.). The cells were washed two times in HBSS and suspended in unsupplemented EBM.
# Stimulation of HUVEC with tumor necrosis factor-α (TNFα) (Genzyme, Cambridge, Mass.) , interleukin (IL-1α) (Genzyrne) or E. coli 0111:B4 lipopolysaccharide (LPS) (Sigma) in the presence or absence of drug was initiated 4 hours prior to the addition of neutrophils. The suspension medium was unsupplemented EBM or supplemented EBM for studies with cytokines or LPS, respectively. […] Immediately prior to addition of ^51 Cr-labeled neutrophils to the HUVEC monolayers, the cultures were washed with 1 mL unsupplemented media to remove stimulus and/or drug. Neutrophils (5×10^5) were then added to the HUVEC in 0.5 mL unsupplemented media and incubated at 37° C. for 30 minutes. Nonadherent neutrophils were removed by aspiration. Following an additional wash, adherent neutrophils were lysed with 0.5 mL 1N NH4 OH overnight at 37° C. Lysates were collected and the radioactivity in each well was determined by gamma ray spectroscopy.
row,SMILES,inhibition at 100 µM [%]
1,"Cc1ccc2sc(C(N)=O)c(OC(C)C)c2c1 [Example 4, 5-Methyl-3-(1-methylethoxy)benzo[b]thiophene-2-carboxamide]",61
2,"COc1ccc2sc(C(N)=O)c(OC)c2c1 [Example 7, 3,5-Dimethoxybenzo[b]thiophene-2-carboxamide]",60
3,"CC(C)Oc1c(C(N)=O)sc2ccc(N)cc12 [Example 32, 5-Amino-3-(1-methylethoxy)benzo[b]thiophene-2-carboxamide]",49
4,"COc1ccc2sc(C(N)=O)c(OC(C)(C)C)c2c1 [Example 30, 3-(1,1-Dimethylethoxy)-5-methoxybenzo[b]thiophene2-carboxamide]",100
5,"COc1cccc2c(OC(C)C)c(C(N)=O)sc12 [Example 6, 7-Methoxy-3-(1-methylethoxy)benzo[b]thiophene2-carboxamide]",35
6,"CC(C)Oc1c(C(N)=O)sc2cc(Cl)ccc12 [Example 31, 6-Chloro-3-(1-thylethoxy)benzo[b]thiophene-2-carboxamide]",26
7,"COc1ccc2sc(C(N)=O)c(OCc3ccccc3)c2c1 [Example 8, 5-Methoxy-3-(phenylmethoxy)benzo[b]thiophene2-carboxamide]",57
8,"CC(C)Oc1c(C(N)=O)sc2ccc(Cl)cc12 [Example 3, 5-Chloro-3-(1-methylethoxy)benzo[b]thiophene-2-carboxamide]",72
9,"COc1ccc2c(OC(C)C)c(C(N)=O)sc2c1 [Example 11, 6-Methoxy-3-(1-methylethoxy)benzo[b]thiophene-2-carboxamide]",24

# Same assay, conditions: Table 2, at 100 μM
row,SMILES,inhibition at 100 µM [%]
1,COC(=O)Cc1ccc(NC(=O)c2sc3ccc(OC)cc3c2OC(C)C)cc1 [Example 17],27
2,"COC(=O)CCCNC(=O)c1sc2ccc(OC)cc2c1OC(C)C [Example 33, Methyl 4-[[[5-methoxy-3-(1-methylethoxy)benzo[b]thien-2-yl]carbonyl]amino]butanoate]",100
3,CCOC(=O)c1ccccc1NC(=O)c1sc2ccc(OC)cc2c1OC(C)C [Example 14],32
4,"COc1ccc2sc(C(=O)NCCCC(=O)O)c(OC(C)C)c2c1 [Example 34, 4-[[[5-Methoxy-3-(1-methylethoxy)benzo[b]thien-2-yl]carbonyl]amino]butanoicacid]",35
5,"COc1ccc2sc(C(=O)Nc3ccccc3)c(OC(C)C)c2c1 [Example 26, 5-Methoxy-3-(1-methylethoxy)-N-phenylbenzo[b]thiophene-2-carboxaraide]",12
6,"COc1ccc2sc(C(=O)Nc3cccc(CC(=O)O)c3)c(OC(C)C)c2c1 [Example 20, 3-[[[5-Methoxy-3-(1-methylethoxy)benzo[b]thien-2-yl]carbonyl]amino]benzeneacetic acid]",70
7,"COc1ccc2sc(C(=O)Nc3cccc(C(=O)O)c3)c(OC(C)C)c2c1 [Example 13, 3-[[[5-Methoxy-3-(1-methylethoxy)benzo[b]thien-2-yl]carbonyl]amino]benzoic acid]",28
8,"COc1ccc2sc(C(=O)Nc3ccc(CC(=O)O)cc3)c(OC(C)C)c2c1 [Example 18, 4-[[[5-Methoxy-3-(1-methylethoxy)benzo[b]thien2-yl]carbonyl]amino]benzeneacetic acid]",32
9,"COc1ccc2sc(C(=O)NCc3ccccc3)c(OC(C)C)c2c1 [Example 27, 5-Methoxy-3-(1-methylethoxy)-N-(phenylmethyl)benzo[b]thiophene-2-carboxamide]",35
10,CNC(=O)c1sc2ccc(OC)cc2c1OC(C)C [Example 24],78
11,CCNC(=O)c1sc2ccc(OC)cc2c1OC(C)C [Example 25],64

# Same assay, conditions: Table 3, at 100 μM
row,SMILES,inhibition at 100 µM [%]
1,"COc1ccc2c(c1)C(OC(C)C)=C(C(N)=O)S2(=O)=O [Example 29, 5-Methoxy-3-(1-methylethoxy)benzo[b]thiophene2-carboxamide 1,1'-dioxide]",4
